From patent US4783480A, “6-keto-prostaglandin E1 derivatives” (Ono Pharmaceutical Co., Ltd., priority 1986, dated 1988)

Tests used:
[1] = system: carbon tetrachloride-induced acute liver damage (plasma GOT and GPT); experiment: cytoprotective activity in carbon tetrachloride-induced acute liver damage in rats; type: in vivo, rat; settings: for minimal effective dose: Rattus norvegicus, sc, rats, dosed three times (0, 6, 12 hrs), read-out: Inhibiting activity of CCl4 induced liver damage, minimum effective dose; for activity in the inhibition of liver damage induced by carbon tetrachloride compared with compounds (d) and (e): words
Protocol: (i) cytoprotective activity in carbon tetrachloride-induced acute liver damage in rats.
(i) Inhibitory activity on liver damage induced by carbon tetrachloride.
A solution of carbon tetrachloride (2000 μl) dissolved in olive oil (10 ml) was administered to Wistar male rates (body weight 190-220 g) at a rate of 2000 μl/kg animal body weight by intraperitoneal injection.
A solution of a compound of the present invention or of one of the comparison compounds in olive oil (2 ml/kg animal body weight) was administered three times, at the same time as, and then 6 hrs and 12 hrs after, the dosage of carbon tetrachloride, and blood was collected twice after 24 hrs and 48 hrs after the first dosage. The blood was centrifuged and plasma GOT (glutamic oxalacetic transaminase) activity and plasma GPT (glutamic pyruvic transaminase) activity were measured.

blood pressure = experiment: hypotensive activity in the anesthetized dog, intravenous administration; type: in vivo; settings: relative to PGE1 = 1
Protocol: (ii) hypotensive activity in dogs and
(ii) Hypotensive activity was measured in the anesthetized dog by intravenous administration, and as active control, PGE1 was used.

[2] = system: blood platelet aggregation induced by ADP; experiment: inhibitory activity of blood platelet aggregation induced by ADP in rats; type: cell-based, rat; settings: relative to PGE1 = 1
From the text: (iii) inhibitory activity of blood platelet aggregation induced by ADP in rats. The experimental methods are described hereinafter.
(iii) The concentrations required to inhibit blood platelet aggregation induced in rats by ADP (adenosine diphosphate) are shown relative to PGE1.

[3] = toxicity (LD50) by intravenous administration in mice; settings: mouse, in vivo

SMILES | Inhibiting activity of blood platelet aggregation (PGE1 = 1) [2] | minimal effective dose [1] | activity in the inhibition of liver damage induced by carbon tetrachloride compared with compounds (d) and (e) [1] | Hypotensive activity (PGE1 = 1) (blood pressure) | LD50 [3]
CCCC[C@H]1CC[C@H]([C@H](O)/C=C/[C@H]2[C@H](O)CC(=O)[C@@H]2CC(=O)CCCCC(=O)N[C@@H](CC(C)C)C(=O)O)C1 [1(b), N-[(13E)-(11α,15α,16S,18S)-6,9-dioxo-11,15-dihydroxy-16,18-ethano-20-ethylprost-13-en-1-oyl]-L-leucine] | 0.01 | < 0.01 mg/kg | almost the same activity | 0.01 | 30 mg/kg
CCCC[C@H]1CC[C@H]([C@H](O)/C=C/[C@H]2[C@H](O)CC(=O)[C@@H]2CC(=O)CCCCC(=O)N[C@@H](Cc2ccccc2)C(=O)O)C1 [Example 1, N-[(13E)-(11α,15α,16S,18S)-6,9-dioxo-11,15-dihydroxy-16,18-ethano-20-ethylprost-13-en-1-oyl]-L-phenylalanine] | 0.01 | < 0.01 mg/kg | almost the same activity | 0.03 | 22 mg/kg

Now from value to molecule, other results behind:

Inhibiting activity of blood platelet aggregation (PGE1 = 1) [2] | SMILES | minimal effective dose [1] | activity in the inhibition of liver damage induced by carbon tetrachloride compared with compounds (d) and (e) [1] | Hypotensive activity (PGE1 = 1) (blood pressure) | LD50 [3]
68 | CCCCC(C)C[C@H](O)/C=C/[C@H]1[C@H](O)CC(=O)[C@@H]1CC(=O)CCCCC(=O)O (some centres unmarked) [(d), reference compound] | 0.03 mg/kg |  | 21 | 
506 | CCCC[C@H]1CC[C@H]([C@H](O)/C=C/[C@H]2[C@H](O)CC(=O)[C@@H]2CC(=O)CCCCC(=O)O)C1 [(e), reference compound] | 0.005 mg/kg |  | 24.5 | 
0.0053 | CCCC[C@H](C)C[C@H](O)/C=C/[C@H]1[C@H](O)CC(=O)[C@@H]1CC(=O)CCCCC(=O)N[C@@H](Cc1ccccc1)C(=O)OC [Example 2(a), N[(13E)-(11α,15α,17S)6,9-dioxo-11,15-dihydroxy-17,20-dimethylprost-13-en-1-oyl]-L-phenylalanine methyl ester] | 0.03 mg/kg | almost the same activity | 0.014 | 
